The source of these data is ChEMBL document CHEMBL5120942, “Designing a Small Fluorescent Inhibitor to Investigate Soluble Epoxide Hydrolase Engagement in Living Cells” (ACS Med Chem Lett, 2022).

The structures appear in SMILES notation. Calls of active or inactive are those of the source. The rule behind the calls is not given here.

Broadly, the IC50 is the concentration at which inhibition is half-maximal. One may read the Kd as the free concentration of one partner at which half of the binding sites on the other are occupied at equilibrium, for simple one-to-one binding. Low readings indicate a tighter complex, high ones a looser complex.

Assay [1] addresses T1, Bifunctional epoxide hydrolase 2 (Homo sapiens, UniProt P34913).
T1 sequence (P34913 whole entry): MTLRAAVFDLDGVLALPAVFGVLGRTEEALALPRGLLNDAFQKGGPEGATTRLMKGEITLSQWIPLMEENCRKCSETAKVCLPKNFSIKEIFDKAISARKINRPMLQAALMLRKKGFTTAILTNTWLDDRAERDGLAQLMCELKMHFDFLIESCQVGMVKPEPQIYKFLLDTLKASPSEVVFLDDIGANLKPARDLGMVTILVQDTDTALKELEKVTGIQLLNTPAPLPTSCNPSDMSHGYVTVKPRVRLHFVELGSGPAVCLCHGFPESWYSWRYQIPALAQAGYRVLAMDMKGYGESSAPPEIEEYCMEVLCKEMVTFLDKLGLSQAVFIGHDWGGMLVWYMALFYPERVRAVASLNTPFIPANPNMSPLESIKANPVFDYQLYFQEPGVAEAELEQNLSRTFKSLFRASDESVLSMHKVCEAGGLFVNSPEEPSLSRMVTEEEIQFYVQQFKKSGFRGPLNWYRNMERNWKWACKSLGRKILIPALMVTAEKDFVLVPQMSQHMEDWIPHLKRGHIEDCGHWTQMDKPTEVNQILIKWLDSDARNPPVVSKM
The experiment in a line: Displacement of (1R,3S)-N-(4-methoxy-2-(trifluoromethyl)benzyl)-3-((7-nitrobenzo[c][1,2,5]-oxadiazol-4-yl)amino)cyclohexane-1-carboxamide from NanoLuc-fused human sEH ( 1 to 555 residues) expressed in HEK293T cells incubated for 5 hrs by NanoBRET analysis. Format: cell-based. The note with it: read-out: Ki(app). Background: In BRET a luciferase serves as donor, and the signal depends on an acceptor being close.

Assay [2] concerns the target T1, Bifunctional epoxide hydrolase 2. The experiment in a line: Inhibition of human sEH BacMam transduced HEK293 cells assessed as reduction in 14,15-DHET formation using 14,15-EET as substrate preincubated for 30 mins followed by susbtrate addition and measured after 90 mins by fluorescence polarization assay. Type of assay: cell-based. (In general: Polarisation of emitted light reports the rotation of a fluorescent probe.)

The target is the same in assay [3]. The experiment in a line: (§1) Inhibition of C-terminal domain of human sEH-H assessed as reduction in fluorescent naphthalene aldehyde formation using PHOME as substrate preincubated with enzyme for 30 mins followed by substrate addition and measured every minute for 45 mins by fluorescence based analysis.
The target in assay [4] is T2, Bifunctional epoxide hydrolase 2 (Homo sapiens) (UniProt P34913).
T2 sequence (whole entry): T1 sequence (P34913 whole entry)
The experiment in a line: Binding affinity to human full length sEH (1 to 555 residues) expressed in doxycycline-induced HEK293 cells at 300 nM incubated for 5 hrs by Hoechst 33342 staining based fluorescence microscopy. Format: cell-based.

In assay [5] the target is T2, Bifunctional epoxide hydrolase 2 (Homo sapiens). Briefly: Binding affinity to C-terminal domain of human sEH-H at 20 nM incubated for 1 hr by fluorescence polarization assay.
The target in assay [6] is T3, Bifunctional epoxide hydrolase 2 (Mus musculus) (UniProt P34914).
T3 sequence (whole entry): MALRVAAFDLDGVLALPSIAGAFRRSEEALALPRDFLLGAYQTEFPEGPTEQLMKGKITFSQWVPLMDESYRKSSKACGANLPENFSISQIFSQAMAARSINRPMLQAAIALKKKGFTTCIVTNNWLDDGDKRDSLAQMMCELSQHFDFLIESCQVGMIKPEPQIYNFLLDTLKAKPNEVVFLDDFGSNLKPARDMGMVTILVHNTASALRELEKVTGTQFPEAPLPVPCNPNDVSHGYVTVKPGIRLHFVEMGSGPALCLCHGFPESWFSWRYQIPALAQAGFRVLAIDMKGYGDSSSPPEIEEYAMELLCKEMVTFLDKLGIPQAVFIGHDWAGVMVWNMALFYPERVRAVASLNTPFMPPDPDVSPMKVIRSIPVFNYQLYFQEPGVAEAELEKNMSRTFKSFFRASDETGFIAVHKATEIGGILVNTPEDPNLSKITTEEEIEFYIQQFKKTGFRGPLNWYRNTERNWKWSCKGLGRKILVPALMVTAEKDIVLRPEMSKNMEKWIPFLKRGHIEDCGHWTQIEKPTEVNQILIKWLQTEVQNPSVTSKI
Briefly: Binding affinity to sEH in C57BL/6J mouse astrocytes at 10 uM incubated for 5 hrs by DAPI staining based immunocytochemistry. The following applies: Astrocyte. Format: cell-based.

Assay [7] addresses T1, Bifunctional epoxide hydrolase 2. The experiment in a line: Binding affinity to NanoLuc-fused human sEH ( 1 to 555 residues) expressed in HEK293T cells incubated for 5 hrs by NanoBRET analysis. Format: cell-based.
Assay [8] addresses T3, Bifunctional epoxide hydrolase 2 (Mus musculus). The experiment in a line: (§2) Inhibition of C-terminal domain of mouse sEH-H assessed as reduction in fluorescent naphthalene aldehyde formation using PHOME as substrate preincubated with enzyme for 30 mins followed by substrate addition and measured every minute for 45 mins by fluorescence based analysis. The note with it: time 75.0 min, DDE = dose-dependent effect.

Assay [9] has as its target T4, Bifunctional epoxide hydrolase 2 (Mus musculus, UniProt P34914).
T4 sequence (P34914 whole entry): T3 sequence (whole entry)
Described as §2.

The target in assay [10] is T2, Bifunctional epoxide hydrolase 2 (Homo sapiens). The description is as §1. The following applies: time 75.0 min, DDE = dose-dependent effect.

With `O=C(O)CCCCCCCCCCNC(=O)NC12CC3CC(CC(C3)C1)C2`, the Ki in assay [1] was found to be 0.016 µM. For the same compound, the 50% inhibitory concentration (IC50) came to 0.034 µM in assay [2] and 0.0026 µM in assay [3].

As to `COc1ccc(CNC(=O)[C@@H]2CCC[C@H](Nc3ccc([N+](=O)[O-])c4nonc34)C2)c(C(F)(F)F)c1`, the outcome in assay [4], in assay [5] and in assay [6] was Active. This compound gave a Kd in assay [7] of 0.006 µM. Also, the inhibition result in [8] and in [10] was “Dde” throughout. The IC50 in assay [9] was determined as 0.00771 µM; in assay [3], 0.00143 µM.

Regarding `CNc1nc(C)nc(N[C@H]2CCC[C@@H](C(=O)NCc3ccc(C#N)cc3C(F)(F)F)C2)n1` [GSK2256294], the Ki in assay [1] was found to be 0.024 µM.

In the case of `O=C(NCc1ccc(NS(=O)(=O)C2CC2)cc1C(F)(F)F)c1ccc2[nH]ccc2c1`, in assay [1], the Ki was 0.583 µM. Moreover, the IC50 in assay [3] is 0.0294 µM.
